Measured values published in PMC12040169 (PLOS Biology, 2025).

Assay: in vitro
Conditions: human, hela cells, % viability

Question: With `COc1ccc(-c2ccc(=O)n(CCN)n2)cc1` [CBK270130C] as the compound, how does the viability at 28.5 h, 10 µM read?
Answer: 97.2%

Question: For `CCOc1ccc(-c2cc(C(=O)N3CCN(C)CC3)c3ccccc3n2)cc1` [CBK066900], which viability at 28.5 h, 10 µM is on record?
Answer: 99%

Question: For `O=C(Nc1ccc2ncccc2c1)c1ccc(OC(F)(F)F)cc1` [CBK159815], which viability at 28.5 h, 10 µM is on record?
Answer: 90.9%

Question: With `COc1ccc(CNC(=O)[C@H]2C=CCN2C(=O)c2cccs2)cc1` [CBK282325] as the compound, how does the viability at 28.5 h, 10 µM read?
Answer: 103%

Question: For `Cc1ccc(S(=O)(=O)N2CCC(C(=O)O)CC2)cc1C(=O)O` [CBK266636], which viability at 28.5 h, 10 µM is on record?
Answer: 99.6%

Question: For `Cn1c(=O)n(C)c2cc(S(=O)(=O)Nc3ccc(Cl)c(C(=O)O)c3)ccc21` [CBK299841], which viability at 28.5 h, 10 µM is on record?
Answer: 90.8%

Question: With `O=C(O)C(Cc1ccccc1)Nc1ncnc2c1oc1ccccc12` (centres unmarked) [CBK266719] as the compound, how does the viability at 28.5 h, 10 µM read?
Answer: 104%

Question: With `CS(=O)(=O)N1CCC(C(=O)NNC(=S)Nc2cccc3ccccc23)CC1` [CBK266811] as the compound, how does the viability at 28.5 h, 10 µM read?
Answer: 84.2%

Question: For `COc1ccc2c(c1)N1CCCN=C1N2C` [CBK011358C], which viability at 28.5 h, 10 µM is on record?
Answer: 90.8%

Question: For `COCc1cccc(-c2ncc(OCc3ccccn3)nc2N)c1` [CBK145108], which viability at 28.5 h, 10 µM is on record?
Answer: 93.9%

Question: With `O=C(c1ccc2ncccc2c1)N1CCN(Cc2ccccc2)CC1` [CBK200175] as the compound, how does the viability at 28.5 h, 10 µM read?
Answer: 99.1%

Question: For `CN1CCN(C(=O)c2[nH]c3ccccc3c2NS(=O)(=O)c2cccc3cccnc23)CC1` [CBK050041], which viability at 28.5 h, 10 µM is on record?
Answer: 87.2%

Question: Which viability at 28.5 h, 10 µM does the source give for `Cc1noc(C)c1CN1CCC(Cc2ccccc2)CC1` [CBK305752] here?
Answer: 96.8%

Question: With `Cc1ccc(C#N)cc1S(=O)(=O)NC1CC(=O)c2ccccc21` (centres unmarked) [CBK304030] as the compound, how does the viability at 28.5 h, 10 µM read?
Answer: 117%

Question: For `c1csc(-c2nn3c(Cn4nnc5ccccc54)nnc3s2)c1` [CBK268204], which viability at 28.5 h, 10 µM is on record?
Answer: 87.7%

Question: With `COc1ccc(C)c(NC(=O)NCCc2c[nH]cn2)c1` [CBK269992] as the compound, how does the viability at 28.5 h, 10 µM read?
Answer: 88.8%

Question: Which viability at 28.5 h, 10 µM does the source give for `O=C1CN(C(=O)NCCOc2ccccc2)CCN1` [CBK155871] here?
Answer: 120%

Question: Which viability at 28.5 h, 10 µM does the source give for `CCOC(=O)C1CCCN(C(=O)Nc2cc(C)on2)C1` (centres unmarked) [CBK305661] here?
Answer: 81.8%

Question: With `CC1CCCN(C(=O)CCn2c(C(F)F)cc3cccnc32)C1` (centres unmarked) [CBK285025] as the compound, how does the viability at 28.5 h, 10 µM read?
Answer: 97.9%

Question: Which viability at 28.5 h, 10 µM does the source give for `Cc1c(NC(=O)C2CN(S(=O)(=O)c3ccccc3)CCN2S(=O)(=O)c2ccccc2)c(=O)n(-c2ccccc2)n1C` (centres unmarked) [CBK264138] here?
Answer: 98%

Question: For `Cc1ccc(S(=O)(=O)Nc2sccc2C(=O)N2CCN(C)CC2)cc1` [CBK042264], which viability at 28.5 h, 10 µM is on record?
Answer: 89.3%

Question: For `Cc1ccc2c(Cl)c(-c3nnc(-c4ccc(Cl)cc4)o3)sc2c1` [CBK263682], which viability at 28.5 h, 10 µM is on record?
Answer: 106%

Question: Which viability at 28.5 h, 10 µM does the source give for `CCc1c(C)sc2ncn(C3CCN(C(=O)C(C)C)CC3)c(=O)c12` [CBK282377] here?
Answer: 81.1%

Question: With `Clc1cccc(CNc2nccnc2-c2ccoc2)c1` [CBK036616] as the compound, how does the viability at 28.5 h, 10 µM read?
Answer: 105%

Question: With `Oc1ccccc1-c1n[nH]c(=S)n1-c1ccc(OC(F)(F)F)cc1` [CBK288384] as the compound, how does the viability at 28.5 h, 10 µM read?
Answer: 85.9%

Question: With `CN(C)c1cccc(-c2cnc3[nH]c(=O)n(CCc4ccncc4)c3n2)c1` [CBK064628] as the compound, how does the viability at 28.5 h, 10 µM read?
Answer: 91.1%

Question: For `CCC1CCCCN1C(=O)c1nc2ccccc2s1` (centres unmarked) [CBK076645], which viability at 28.5 h, 10 µM is on record?
Answer: 101%

Question: With `O=S(=O)(NC1CCN(Cc2ccccc2)CC1)c1ccc(-c2ccon2)s1` [CBK062038] as the compound, how does the viability at 28.5 h, 10 µM read?
Answer: 93.5%

Question: For `CCN(CC)C(=O)Cn1c(=O)n(Cc2ccco2)c2ncccc21` [CBK284016], which viability at 28.5 h, 10 µM is on record?
Answer: 109%

Question: For `O=C(N[C@H]1CCN2C(=O)c3ccccc3NC(=O)[C@H]12)c1cccc(F)c1` [CBK289332], which viability at 28.5 h, 10 µM is on record?
Answer: 89.3%

Question: Which viability at 28.5 h, 10 µM does the source give for `COc1ccc(C(=O)C2=C(O)C(=O)N(Cc3cccnc3)C2c2cccc([N+](=O)[O-])c2)cc1` (centres unmarked) [CBK264661] here?
Answer: 99.5%

Question: For `Cc1occc1-c1nn(CCN2CCCCC2)c(=O)o1` [CBK283815], which viability at 28.5 h, 10 µM is on record?
Answer: 96.8%

Question: For `Cn1cc(C(=O)Nc2c(F)cc(F)cc2OC2CCNCC2)c2ccccc21` [CBK050328T], which viability at 28.5 h, 10 µM is on record?
Answer: 89.1%

Question: For `O=C(/C=C\c1cccs1)NC(=S)Nc1ccc([N+](=O)[O-])cc1O` [CBK261231], which viability at 28.5 h, 10 µM is on record?
Answer: 89.4%

Question: For `Cc1ccn2c(-c3csc(Nc4ccc(S(N)(=O)=O)cc4)n3)c(C)nc2c1` [CBK263304B], which viability at 28.5 h, 10 µM is on record?
Answer: 63.7%

Question: With `CCOc1ccc(C(=O)NCCC(=O)O)cc1` [CBK261725D] as the compound, how does the viability at 28.5 h, 10 µM read?
Answer: 92.2%

Question: Which viability at 28.5 h, 10 µM does the source give for `O=C(COC(=O)c1cc(-c2ccco2)nc2ccccc12)Nc1ccc(F)c(F)c1F` [CBK296115] here?
Answer: 84.6%

Question: With `CC(C)NC(=O)C1CCN(c2nc3ccccc3n2C)CC1` [CBK283986] as the compound, how does the viability at 28.5 h, 10 µM read?
Answer: 87.5%

Question: Which viability at 28.5 h, 10 µM does the source give for `Cc1ccc(OC(C)c2nc(-c3nonc3N)no2)cc1C` (centres unmarked) [CBK025698] here?
Answer: 92.4%

Question: Which viability at 28.5 h, 10 µM does the source give for `CC1(C(=O)O)CCC(C(=O)Nc2ccc(F)cc2)C1(C)C` (centres unmarked) [CBK286953] here?
Answer: 98.8%

Question: Which viability at 28.5 h, 10 µM does the source give for `CSc1nc(N)c2c3c(sc2n1)CN(C)CC3` [CBK018303] here?
Answer: 122%

Question: Which viability at 28.5 h, 10 µM does the source give for `CCN1C(=O)C2(CC(=O)N(CC3CCCCC3)C2=O)c2cc(C)ccc21` (centres unmarked) [CBK075216] here?
Answer: 98.2%

Question: For `CCc1cc(OCCCSc2nc(C)cc(O)n2)ccc1Cl` [CBK267364], which viability at 28.5 h, 10 µM is on record?
Answer: 106%

Question: With `COc1ccc(NC(=O)CSc2nc(N)cc(O)n2)c([N+](=O)[O-])c1` [CBK267904] as the compound, how does the viability at 28.5 h, 10 µM read?
Answer: 101%

Question: With `COC(=O)c1cccc(C(=O)Nc2ncc(-c3ccccc3)s2)c1` [CBK298294] as the compound, how does the viability at 28.5 h, 10 µM read?
Answer: 89.7%

Question: Which viability at 28.5 h, 10 µM does the source give for `CCc1nc2ccc(C(=O)Nc3ccc(C(N)=O)cc3)cn2c1N(CC)Cc1cccc(Br)c1` [CBK146960] here?
Answer: 92.9%

Question: With `CCC(C(=O)Nc1cc(OC)c(OC)cc1C(=O)O)c1ccccc1` (centres unmarked) [CBK266794] as the compound, how does the viability at 28.5 h, 10 µM read?
Answer: 106%

Question: Which viability at 28.5 h, 10 µM does the source give for `C[C@H](Nc1nc(-c2cccc(-c3ccccc3)c2)cnc1N)c1ccccc1` [CBK063752] here?
Answer: 94.5%

Question: Which viability at 28.5 h, 10 µM does the source give for `CCN1CCN(C(=O)Cc2ccc(N(C)C)cc2)CC1` [CBK200253] here?
Answer: 82.2%

Question: With `Cc1ccc(S(=O)(=O)NCc2ccccc2)c(C)c1NS(C)(=O)=O` [CBK268555] as the compound, how does the viability at 28.5 h, 10 µM read?
Answer: 90.2%

Question: With `O=C(NCc1ccc2c(c1)CCN2C(=O)c1ccncc1)c1cccnc1` [CBK288585] as the compound, how does the viability at 28.5 h, 10 µM read?
Answer: 91.4%

Question: With `Cn1cnnc1SCCNC(=O)N1CCCN(Cc2cccs2)CC1` [CBK307485] as the compound, how does the viability at 28.5 h, 10 µM read?
Answer: 94%

Question: For `Cn1c2ccccc2c2nnc(SCc3ccc4nonc4c3)nc21` [CBK267515], which viability at 28.5 h, 10 µM is on record?
Answer: 89.9%

Question: With `Cc1ccc(C(Cn2cncc2-c2cn(C)nc2C)N(C)C)cc1` (centres unmarked) [CBK281896] as the compound, how does the viability at 28.5 h, 10 µM read?
Answer: 98.7%

Question: Which viability at 28.5 h, 10 µM does the source give for `Nc1cccc(Sc2ccc(C(F)(F)F)cn2)c1` [CBK089606] here?
Answer: 107%

Question: For `CC[C@H]1CN(C(=O)NC(C)C)CC[C@H]1CC(=O)Nc1nccs1` [CBK288774], which viability at 28.5 h, 10 µM is on record?
Answer: 109%

Question: Which viability at 28.5 h, 10 µM does the source give for `O=C(Nc1cccc(C(F)(F)F)c1)c1ccc(N2CCNCC2)c([N+](=O)[O-])c1` [CBK266274] here?
Answer: 100%

Question: For `CCC1CCCCN1C(=O)c1cc2ccccc2o1` (centres unmarked) [CBK078549], which viability at 28.5 h, 10 µM is on record?
Answer: 80.1%

Question: Which viability at 28.5 h, 10 µM does the source give for `CSc1nnc(-c2cccs2)n1C` [CBK067702] here?
Answer: 87.9%

Question: For `O=C(Nc1ccc2oc(-c3cccnc3)nc2c1)c1ccc(-c2ccccc2)cc1` [CBK264035], which viability at 28.5 h, 10 µM is on record?
Answer: 88.3%

Question: With `CCOc1ccc(-c2csc(NC(=O)CC)n2)cc1` [CBK287764] as the compound, how does the viability at 28.5 h, 10 µM read?
Answer: 92.5%

Question: With `COc1ccc(-n2ncc3c2CCCN(C(=O)C2CCCC2)C3)cc1` [CBK284501] as the compound, how does the viability at 28.5 h, 10 µM read?
Answer: 78%

Question: For `COc1ccccc1CN(CC1CCNCC1)C(=O)NC(c1ccccc1)c1ccccc1` [CBK049741], which viability at 28.5 h, 10 µM is on record?
Answer: 115%

Same assay, conditions: human, hela cells, % viability, bulk resorufin, single well

Question: Which viability at 28.5 h, 10 µM does the source give for `CN(C)C(=O)c1ccc(Cn2nc(C(=O)NC3CC3)c3ccccc32)cc1` [CBK047720] here?
Answer: 93.1%

Question: With `COC(=O)c1cccc(NC(=O)N2CCC3(CC2)OCCO3)c1` [CBK043713] as the compound, how does the viability at 28.5 h, 10 µM read?
Answer: 91.1%
